This note sets out measurements from US12168673B2 (Mitopower, Inc., priority 2022, dated 2024).

The Papp A→B is how fast a substance crosses the layer from the apical side. Usually Papp B→A stands for the apparent permeability from the basolateral to the apical side of a cell layer. The efflux ratio is the permeability from basolateral to apical divided by that in the opposite direction, in the common usage.

SMILES strings stand for the structures. Read-outs that look alike come from different tables or passages of the source.

A short description of data set [1]: Kinetic solubility. Format: physicochemical. As to conditions: aqueous buffer, kinetic from dmso stock, 0.1 M phosphate buffered saline pH 7.4, target 100 μM, 1.5 h. As to the method: The target compound concentration was 100 μM (kinetic), the assay buffer was 0.1 M phosphate buffered saline pH 7.4, the mixing period was 1.5 h (kinetic). The sample was prepared by centrifugation or filtration and the detection method used was HPLC with UV-vis spectrometry.

Data set [2] is described as follows: Caco-2 permeability assay. As to conditions: human. The source says: The endpoint measured is the intestinal permeability expressed as apparent permeability—Papp value. All permeability values are represented as ×10^−6 cm/sec.
A general note: Caco-2 cells form a polarised layer with tight junctions and transporters.

The nature of data set [3]: Human hepatocyte clearance. Format: in vitro ADME. The settings on record: human hepatocytes, 1 μM. As for the experimental part: (§1) A hepatocyte vial was taken out from the liquid nitrogen tank and was thawed in a water bath maintained at 37° C. The thawed cell suspension was transferred into a torsion tube containing 50 mL of thawing media (Xenotech). The thawing media containing hepatocytes was centrifuged at 1000 rpm for 5 min, the supernatant was discarded and the pellet was resuspended in 2 ml of Xenotech OptiIncubate Media. The cells were counted by using a haemocytometer after mixing an aliquot of cell suspension with equal volume of trypan blue. The cell suspension was diluted to a working density of 2 million cells with DMEM media without FBS/incubation media.
(§2) The assay was performed in duplicates (n=2). 150 μL of 2 million cell working stock of hepatocyte cell suspension was added to a 24 well plate and incubated in a 37° C. incubator, with speed of 500 RPM for 10 min. 150 μL of 2 μM working stock of test compound was incubated separately. The reaction at 0, 15, 30, 60 and 90 min was stopped by precipitating 20 μL of incubation mixture with 200 μL of acetonitrile containing internal standard. […] The supernatant was separated and diluted 1:1 with water before injecting in LC-MS/MS analysis.

The test system of data set [4] is human hepatocytes. Briefly: Human hepatocyte clearance. Format: in vitro ADME. As to the method:
as §1, §2

Data set [5] deals with human hepatocytes. Briefly: Human hepatocyte stability.
Experimental: 10 mM stock solution of test compound was prepared in DMSO and diluted to a concentration of 1 mM with DMSO. Working concentration of 2 μM was prepared by further dilution with PBS. Preincubation mixture of 150 μL of hepatocyte cell suspension (1,000,000 cells/mL, INVITROGRO HT medium buffer), was added to vials for preincubation for 10 min @37° C.
150 μL of 2 μM working stock of the test compound was added to the cell suspension and incubated at @37 C at 500 rpm. The reaction was stopped at 0, 15, 30, 60 and 90 min by precipitating 50 μL of the incubation mixture with 150 μL of acetonitrile. Samples were vortexed for 5 min at 1200 rpm and centrifuged at 4000 rpm for 10 min. 150 μL of the supernatant was diluted with 150 μL of water and injected in MS system (SCIEX, API 4500 Q Trap) for analysis.
[6] abbreviates: read-out: Mean Solubility (μg/mL).

Consider `CCCSc1ccc2nc(NC(=O)OC)[nH]c2c1` [Albendazole, reference compound], for which the solubility at 1.5 h amounted to 0.66 µM in data set [1] (read-out: Mean Solubility) and 0.2 µg/mL in data set [1] (setting [6]).

On to `NC(=O)N1c2ccccc2C=Cc2ccccc21` [Carbamazepine, reference compound], for which, in data set [2], the Papp A→B came out at 22.2 ×10⁻⁶ cm/s, the Papp B→A came out at 23.4 ×10⁻⁶ cm/s and the efflux ratio amounted to 1.1. In addition, the recovery in data set [2] (Caco-2, % Recovery A to B) was found to be 89.3%. This compound also came in with a recovery in data set [2] (Caco-2, % Recovery B to A) of 91%.

In the case of `O=c1[nH]c2ccccc2n1CCCN1CCC(n2c(=O)[nH]c3cc(Cl)ccc32)CC1` [Domperidone, reference compound], in data set [2], the Papp A→B amounted to 3.9 ×10⁻⁶ cm/s, the Papp B→A was 20.3 ×10⁻⁶ cm/s and the efflux ratio came to 5.2. Besides, in data set [2] (Caco-2, % Recovery A to B), the recovery was found to be 61.8%. In data set [2] (Caco-2, % Recovery B to A), this compound displayed a recovery of 76.4%.

`CC(C(=O)O)c1ccc(-c2ccccc2)c(F)c1` (stereo not shown) [Flurbiprofen, reference compound]: the results for the solubility at 1.5 h in data set [1] (read-out: Mean Solubility) and in data set [1] (setting [6]) were 111 µM and 27 µg/mL, respectively.

As for `C[C@]12CC[C@H]3[C@@H](CCC4=CC(=O)CC[C@@]43C)[C@@H]1CC[C@@H]2O` [Testosterone, reference compound], the half-life at 1 μM in data set [3] (0-90 min, read-out: T½) turned out to be 9.14 min. For the same compound, in data set [3] (read-out: Intrinsic Clearance (CL Int)), the hepatocyte CLint at 1 μM stood at 75.8 µL/min/1e6 cells. In addition, in data set [4], the “Remarks (clearance class)” value is “High*”. Moreover, the “% Parent Remaining” value in data set [5] (0 mins) is reported as 100%; in data set [5] (15 mins), 28%; in data set [5] (30 mins), 11%; in data set [5] (60 mins), 3%; in data set [5] (90 mins), 1%.
